This passage reports IC50 results from US12011444B2, “N-substituted indole derivatives as PGE2 receptor modulators” (Idorsia Pharmaceuticals Ltd, priority 2015, dated 2024).

The target in experiment [1] is PTGER2 (EP2) (Homo sapiens (Human), UniProt P43116). The experiment in a line: hEP2 b-arrestin assay (PathHunter HEK 293 PTGER2 b-arrestin cells). It is filed as cell-based. To be noted: hEP2 b-arrestin assay (values without asterisk). The source says: (§1) The assay is using the PathHunter™ HEK 293 PTGER2 and PTGER4 b-arrestin cell lines from DiscoverX. The system is based on the Enzyme Fragment Complementation Technology. Two complementing fragments of the b-galactosidase enzyme are expressed within stably transfected cells. The larger portion of b-gal, termed EA for Enzyme Acceptor, is fused to the C-terminus of b-arrestin 2. The smaller fragment, termed ProLink™ tag, is fused to PTGER2 (EP2) or PTRGER4 (EP4) at the C-terminus. Upon activation, b-arrestin is recruited which forces the interaction of ProLink and EA, allowing complementation of the two fragments of b-gal and the formation of a functional enzyme which is capable of hydrolysing the substrate and generating a chemiluminescent signal.
PTGER2 (EP2), sequence (P43116 whole entry, the tested form may be a part): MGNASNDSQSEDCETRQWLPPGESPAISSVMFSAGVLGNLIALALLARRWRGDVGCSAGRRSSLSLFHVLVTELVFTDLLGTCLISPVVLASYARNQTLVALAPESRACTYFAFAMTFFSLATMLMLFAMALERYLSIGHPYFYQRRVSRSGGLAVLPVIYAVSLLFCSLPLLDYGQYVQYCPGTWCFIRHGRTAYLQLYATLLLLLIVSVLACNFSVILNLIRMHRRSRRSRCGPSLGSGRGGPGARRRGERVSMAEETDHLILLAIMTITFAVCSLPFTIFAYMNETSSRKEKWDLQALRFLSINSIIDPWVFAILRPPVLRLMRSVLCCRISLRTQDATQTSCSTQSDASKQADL
(§2) 5000 cells per well of a 384 well plate (white with white bottom Greiner 781080) are seeded in 20 ul per well of GM. Plate is incubated at 37° C., 5% C02 for 24 hours.
Plate is pre-incubated 15 minutes at 37° C. Then five microliters of PGE2 (final conc. 5 μM) are transferred into the assay plate. Plate is incubated 120 minutes at 37° C.
Twelve μl of reagent are transferred to the assay plate and incubate for 1 hour at room temperature in the dark. Luminescence counts are read on a BMG Fluostar Optima reader according to manufacturer's instructions. For each compound concentration calculate of the percentage of activity compared to DMSO control value as average±STDEV. (each concentration is measured in duplicate)

In experiment [2] the target is PTRGER4 (EP4) (Homo sapiens (Human), UniProt P35408). Description: hEP4 b-arrestin assay (PathHunter HEK 293 PTGER4 b-arrestin cells). It is filed as cell-based. As to conditions: hEP4 b-arrestin assay (values without asterisk).
PTRGER4 (EP4), sequence (P35408 whole entry, looked up): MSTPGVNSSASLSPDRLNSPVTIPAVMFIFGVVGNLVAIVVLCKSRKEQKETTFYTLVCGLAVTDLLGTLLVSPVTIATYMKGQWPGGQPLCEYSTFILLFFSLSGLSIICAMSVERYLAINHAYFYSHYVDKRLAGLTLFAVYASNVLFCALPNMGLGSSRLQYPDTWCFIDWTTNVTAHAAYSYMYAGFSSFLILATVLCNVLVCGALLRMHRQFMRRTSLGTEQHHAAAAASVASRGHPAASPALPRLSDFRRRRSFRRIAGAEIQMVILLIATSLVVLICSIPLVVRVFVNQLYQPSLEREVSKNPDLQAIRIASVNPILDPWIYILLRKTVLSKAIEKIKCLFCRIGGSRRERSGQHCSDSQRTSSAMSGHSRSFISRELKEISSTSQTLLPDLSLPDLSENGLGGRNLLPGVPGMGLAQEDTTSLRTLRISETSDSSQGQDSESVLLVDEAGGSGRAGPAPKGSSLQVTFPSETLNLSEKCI
Description: as §1, §2
Plate is pre-incubated 15 minutes at 37° C. Then five microliters of PGE2 (final conc. 20 nM) are transferred into the assay plate. Plate is incubated 120 minutes at 37° C.
Twelve μl of reagent are transferred to the assay plate and incubate for 1 hour at room temperature in the dark. Luminescence counts are read on a BMG Fluostar Optima reader according to manufacturer's instructions. For each compound concentration calculate of the percentage of activity compared to DMSO control value as average±STDEV.

The IC50 is the concentration needed to halve the response being measured. In the case of `CCCOc1cc(-c2cc(NCCn3c(C#N)cc4c(OC)ccc(F)c43)ncn2)ccc1CC(=O)O` [Example 833, (4-{6-[2-(2-Cyano-7-fluoro-4-methoxy-indol-1-yl)-ethylamino]-pyrimidin-4-yl}-2-propoxy-phenyl)-acetic acid], the IC50 in experiment [1] came out at 0.062 µM; in experiment [2], 0.027 µM.
As for `CCc1cc(-c2cc(NCCn3c(C#N)cc4c(OC)ccc(F)c43)ncn2)ccc1OCC(=O)O` [Example 834, (4-{6-[2-(2-Cyano-7-fluoro-4-methoxy-indol-1-yl)-ethylamino]-pyrimidin-4-yl}-2-ethyl-phenoxy)-acetic acid], the values for the IC50 in experiment [1] and in experiment [2] were 0.015 µM and 0.028 µM, respectively.
The corresponding values for `CCOc1cc(-c2cc(NCCn3c(C)cc4c(C)cc(F)cc43)ncn2)ccc1-c1noc(=O)[nH]1` [Example 835, 3-(2-Ethoxy-4-{6-[2-(6-fluoro-2,4-dimethyl-indol-1-yl)-ethylamino]-pyrimidin-4-yl}-phenyl)-[1,2,4]oxadiazol-5(4H)-one] are 0.019 µM and 0.031 µM.
With `[2H]C([2H])(Nc1cc(-c2cc(Cl)c(C(=O)O)c(OCCCC)c2)ncn1)C([2H])([2H])n1c(C)cc2c(OC)ccc(F)c21` [Example 836, 2-butoxy-6-chloro-4-(6-((2-(7-fluoro-4-methoxy-2-methyl-1H-indol-1-yl)ethyl-1,1,2,2-d4)amino)pyrimidin-4-yl)benzoic acid], the IC50 turned out to be 0.007 µM in experiment [1] and 0.032 µM in experiment [2].
In the case of `CCOc1cc(-c2cc(NCCn3c(C)cc4c(C)c(F)cc(Cl)c43)ncn2)sc1C(=O)O` [Example 837, 5-{6-[2-(7-Chloro-5-fluoro-2,4-dimethyl-indol-1-yl)-ethylamino]-pyrimidin-4-yl}-3-ethoxy-thiophene-2-carboxylic acid], the IC50 in experiment [1] was 0.028 µM; in experiment [2] it was 0.039 µM.
For `COc1cc(F)cc2c1cc(C)n2CCNc1cc(-c2cc(OCC(F)(F)F)c(C(=O)O)s2)ncn1` [Example 838, 5-{6-[2-(6-Fluoro-4-methoxy-2-methyl-indol-1-yl)-ethylamino]-pyrimidin-4-yl}-3-(2,2,2-trifluoro-ethoxy)-thiophene-2-carboxylic acid], the figures for the IC50 in experiment [1] and in experiment [2] were 0.004 µM and 0.041 µM, respectively.
Turning to `N#Cc1c(F)c2ccccc2n1CCNc1cc(-c2cc(C(F)(F)F)c(C(=O)O)s2)ncn1` [Example 840, 5-{6-[2-(2-Cyano-3-fluoro-indol-1-yl)-ethylamino]-pyrimidin-4-yl}-3-trifluoromethyl-thiophene-2-carboxylic acid], the results for the IC50 in experiment [1] and in experiment [2] were 0.048 µM and 0.047 µM, respectively.
The matching figures for `COc1ccc(F)c2c1cc(C#N)n2CCNc1cc(-c2ccc(OCC(=O)O)c(Cl)c2)ncn1` [Example 841, (2-Chloro-4-{6-[2-(2-cyano-7-fluoro-4-methoxy-indol-1-yl)-ethylamino]-pyrimidin-4-yl}-phenoxy)-acetic acid]: 0.025 µM and 0.061 µM.
`CCOc1cc(-c2cc(NCCn3c(C)cc4c(OC)ccc(F)c43)ncn2)ccc1-c1ncco1` [Example 842, [6-(3-Ethoxy-4-oxazol-2-yl-phenyl)-pyrimidin-4-yl]-[2-(7-fluoro-4-methoxy-2-methyl-indol-1-yl)-ethyl]-amine]: the values for the IC50 in experiment [1] and in experiment [2] were 0.013 µM and 0.094 µM, respectively.
In the case of `COc1ccc(F)c2c1cc(C)n2CCNc1cc(-c2ccc(C(=O)O)c(OCC(F)(F)F)c2)ncn1` [Example 844, 4-{6-[2-(7-Fluoro-4-methoxy-2-methyl-indol-1-yl)-ethylamino]-pyrimidin-4-yl}-2-(2,2,2-trifluoro-ethoxy)-benzoic acid], the results for the IC50 in experiment [1] and in experiment [2] were 0.005 µM and 0.142 µM, respectively.
As to `COc1cc(F)cc2c1cc(C)n2CCNc1cc(-c2ccc(C(=O)O)c(OCC(F)(F)F)c2)ncn1` [Example 845, 4-{6-[2-(6-Fluoro-4-methoxy-2-methyl-indol-1-yl)-ethylamino]-pyrimidin-4-yl}-2-(2,2,2-trifluoro-ethoxy)-benzoic acid], the figures for the IC50 in experiment [1] and in experiment [2] were 0.007 µM and 0.215 µM, respectively.
The matching figures for `N#Cc1c(F)c2ccccc2n1CCNc1cc(-c2cc(F)c(C(=O)O)s2)ncn1` [Example 846, 5-{6-[2-(2-Cyano-3-fluoro-indol-1-yl)-ethylamino]-pyrimidin-4-yl}-3-fluoro-thiophene-2-carboxylic acid]: 0.024 µM and 0.221 µM.
The matching figures for `CCOc1cc(-c2cc(NCCn3c(C)cc4c(OC)ccc(F)c43)ncn2)sc1CC(=O)O` [Example 847, (3-Ethoxy-5-{6-[2-(7-fluoro-4-methoxy-2-methyl-indol-1-yl)-ethylamino]-pyrimidin-4-yl}-thiophen-2-yl)-acetic acid]: 0.035 µM and 0.309 µM.
For the compound `CCOc1cc(-c2cc(NCCn3c(C)cc4c(OC)ccc(F)c43)ncn2)ccc1-c1nc(C)c(C)o1` [Example 848, {6-[4-(4,5-Dimethyl-oxazol-2-yl)-3-ethoxy-phenyl]-pyrimidin-4-yl}-[2-(7-fluoro-4-methoxy-2-methyl-indol-1-yl)-ethyl]-amine], the IC50 in experiment [1] worked out at 0.02 µM; in experiment [2] it was 0.321 µM.
For `CCOc1cc(-c2cc(NCCn3c(C)cc4c(OC)ccc(F)c43)ncn2)ccc1-c1nc2ccccc2o1` [Example 849, [6-(4-Benzooxazol-2-yl-3-ethoxy-phenyl)-pyrimidin-4-yl]-[2-(7-fluoro-4-methoxy-2-methyl-indol-1-yl)-ethyl]-amine], the figures for the IC50 in experiment [1] and in experiment [2] were 0.039 µM and 0.589 µM, respectively.
Consider `N#Cc1cc2c(Cl)cc(Cl)cc2n1CCNc1cc(-c2cc(F)c(C(=O)O)s2)ncn1` [Example 850, 5-{6-[2-(4,6-Dichloro-2-cyano-indol-1-yl)-ethylamino]-pyrimidin-4-yl}-3-fluoro-thiophene-2-carboxylic acid], for which the IC50 in experiment [1] was determined as 0.002 µM; in experiment [2] it was 0.079 µM.
For the compound `Cc1ccc(F)c2c1cc(C#N)n2CCNc1cc(-c2cc(F)c(C(=O)O)s2)ncn1` [Example 851, 5-{6-[2-(2-Cyano-7-fluoro-4-methyl-indol-1-yl)-ethylamino]-pyrimidin-4-yl}-3-fluoro-thiophene-2-carboxylic acid], the IC50 is 0.018 µM in experiment [1] and 0.028 µM in experiment [2].
Take `COc1ccc(F)c2c1cc(C#N)n2CCNc1cc(-c2ccc(-c3cc(O)no3)cc2)ncn1` [Example 852, 7-Fluoro-1-(2-{6-[4-(3-hydroxy-isoxazol-5-yl)-phenyl]-pyrimidin-4-ylamino}-ethyl)-4-methoxy-1H-indole-2-carbonitrile]: the figures for the IC50 in experiment [1] and in experiment [2] were 0.012 µM and 0.022 µM, respectively.
The corresponding values for `CCOc1cc(-c2cc(NCCn3c(C#N)cc4c(OC)ccc(F)c43)ncn2)ccc1NC(=O)C(=O)O` [Example 853, N-(4-{6-[2-(2-Cyano-7-fluoro-4-methoxy-indol-1-yl)-ethylamino]-pyrimidin-4-yl}-2-ethoxy-phenyl)-oxalamic acid] are 0.005 µM and 0.001 µM.
`CCOc1cc(-c2cc(NCCn3c(C#N)cc4c(OC)ccc(F)c43)ncn2)sc1CC(=O)O` [Example 854, (5-{6-[2-(2-Cyano-7-fluoro-4-methoxy-indol-1-yl)-ethylamino]-pyrimidin-4-yl}-3-ethoxy-thiophen-2-yl)-acetic acid]: the IC50 in experiment [1] came to 0.232 µM; in experiment [2], 0.193 µM.
The corresponding values for `COc1cc(-c2cc(NCCn3c(C#N)cc4c(OC)ccc(F)c43)ncn2)ccc1-c1cc(O)no1` [Example 855, 7-Fluoro-1-(2-{6-[4-(3-hydroxy-isoxazol-5-yl)-3-methoxy-phenyl]-pyrimidin-4-ylamino}-ethyl)-4-methoxy-1H-indole-2-carbonitrile] are 0.006 µM and 0.003 µM.
As for `N#Cc1cc2c(Cl)cc(Cl)cc2n1CCNc1cc(-c2cc(C(F)(F)F)c(C(=O)O)s2)ncn1` [Example 856, 5-{6-[2-(4,6-Dichloro-2-cyano-indol-1-yl)-ethylamino]-pyrimidin-4-yl}-3-trifluoromethyl-thiophene-2-carboxylic acid], the IC50 in experiment [1] was found to be 0.008 µM; in experiment [2] it was 0.052 µM.
Consider `Cc1c(F)c(F)cc2c1cc(C#N)n2CCNc1cc(-c2cc(C(F)(F)F)c(C(=O)O)s2)ncn1` [Example 857, 5-{6-[2-(2-Cyano-5,6-difluoro-4-methyl-indol-1-yl)-ethylamino]-pyrimidin-4-yl}-3-trifluoromethyl-thiophene-2-carboxylic acid], for which the IC50 in experiment [1] worked out at 0.058 µM; in experiment [2], 0.212 µM.
As to `Cc1ccc(F)c2c1cc(C#N)n2CCNc1cc(-c2cc(C(F)(F)F)c(C(=O)O)s2)ncn1` [Example 858, 5-{6-[2-(2-Cyano-7-fluoro-4-methyl-indol-1-yl)-ethylamino]-pyrimidin-4-yl}-3-trifluoromethyl-thiophene-2-carboxylic acid], the results for the IC50 in experiment [1] and in experiment [2] were 0.022 µM and 0.004 µM, respectively.
